Reference: patent US9809623B2, “α4β7 peptide monomer and dimer antagonists” (Protagonist Therapeutics, Inc., priority 2014, dated 2017)
pIC50: −log10 of the molar value. Read-outs that look alike come from different tables or passages of the source. Numbered stars: 1 amine (or outer) side, 2 acyl side, 3 side chain; on linkers, the order of the positions; unused ones are H or OH. Bridge positions count the residues as written; N and C are the ends. Square brackets hold non-standard residues; d marks the D form. Peptide text beside a SMILES is read from it. I, II: the chains in the order shown. X2 = O=C(CCOCCOCCOCCOCCOCCOCCOCCOCCOCCOCCOCCOCCOCCOCCOCCOCCOCCOCCOCCOCCOCCOCCOCCOCCOCCC(=O)[*:2])[*:1]; Phe(4-tBu) = CC(C)(C)c1ccc(C[C@H](N)C(=O)O)cc1; Diglycolyl = O=C(COCC(=O)[*:2])[*:1]; NMeR = CN[C@@H](CCCNC(=N)N)C(=O)O; β3hE = N[C@@H](CCC(=O)O)CC(=O)O; Pen = CC(C)(S)[C@H](N)C(=O)O

Columns and labels:
α4β1 = α4β1 (Homo sapiens, UniProt P05556+P13612); assay: α4β1-VCAM Cell Adhesion Assay (Jurkat E6.1 human cells); type: cell-based; parameters: host or cells: Jurkat E6.1 human T cells
Description: Jurkat E6.1 human cells (Sigma #88042803) were cultured in RPMI 1640 HEPES medium (Invitrogen #22400-089) supplemented with 10% serum (Fetal Bovine Serum, Invitrogen #16140-071), 1 mM sodium pyruvate (Invitrogen #11360-070), 2 mM L-glutamine (Invitrogen #25030-081) and Penicillin-Streptomycin (Invitrogen #15140-122) at 100 units of penicillin and 100 μg of streptomycin per ml. The cells were washed two times in DMEM medium (ATCC #30-2002) supplemented with 0.1% BSA, 10 mM HEPES pH 7 and 1 mM MnCl2. The cells were re-suspended in supplemented DMEM medium at a density of 4×10^6 cells/ml.
A Nunc MaxiSorp plate was coated with rh VCAM-1/CD106 Fc chimera (R&D #862-VC) at 400 ng per well in 50 ul per well in 1×PBS and incubated at 4° C. overnight. The solution was then removed by shaking, blocked with 250 ul per well PBS containing 1% BSA, and incubated at 37° C. for 1 hr. The solution was removed by shaking. Peptides were diluted by serial dilution in a final volume of 50 ul per well (2× concentration). To each well, 50 ul of cells (200,000 cells) were added and the plate was incubated at 37° C., 5% CO2 for 30-45 min to allow cell adhesion. The wells were washed manually three times (100 ul per wash) with supplemented DMEM. After the final wash, 100 ul/well of supplemented DMEM and 10 ul/well of MTT reagent (ATTC cat#30-1010K) were added. The plate was incubated at 37° C., 5% CO2 for 2-3 hrs until a purple precipitate was visible. 100 ul of Detergent Reagent (ATTC cat#30-1010K) was added to each well. The plate was covered from the light, wrapped in Parafilm to prevent evaporation, and left overnight at room temperature in the dark. The plate was shaken for 5 min and the absorbance at 570 nm was measured. To calculate the dose response, the absorbance value of control wells not containing cells was subtracted from each test well.

rh integrin α4β7 = biological target: T1, rh integrin α4β7 (Homo sapiens, UniProt P13612+P26010); assay: α4β7-MAdCAM Competition ELISA; type: binding
T1 construct: purchased R&D Systems 5397-A30
In short: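 Recombinant human α4β7 was captured on nickel plates at 800 ng/well. Peptide in 3-fold serial dilution (final top 10 μM) competed with MAdCAM-1 (final 10 nM) for 1 h at room temperature in 50 mM Tris pH 7.6, 150 mM NaCl, 1 mM MnCl2 or MgCl2. Bound MAdCAM-1 was detected with anti-human IgG1-HRP/TMB at A450.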

[1] = Table 4-B, read-out: Cell Adhesion α4β1 IC50
[2] = Table 4-B, read-out: ELISA α4β7 IC50
[3] = Table 3-B, Selectivity (α4β1), range classes, read-out: α4β1 cell IC50
[4] = Table 3-B, Potency (α4β7), range classes, read-out: α4β7 ELISA IC50

T1 sequence (P13612 34-977 limits assumed): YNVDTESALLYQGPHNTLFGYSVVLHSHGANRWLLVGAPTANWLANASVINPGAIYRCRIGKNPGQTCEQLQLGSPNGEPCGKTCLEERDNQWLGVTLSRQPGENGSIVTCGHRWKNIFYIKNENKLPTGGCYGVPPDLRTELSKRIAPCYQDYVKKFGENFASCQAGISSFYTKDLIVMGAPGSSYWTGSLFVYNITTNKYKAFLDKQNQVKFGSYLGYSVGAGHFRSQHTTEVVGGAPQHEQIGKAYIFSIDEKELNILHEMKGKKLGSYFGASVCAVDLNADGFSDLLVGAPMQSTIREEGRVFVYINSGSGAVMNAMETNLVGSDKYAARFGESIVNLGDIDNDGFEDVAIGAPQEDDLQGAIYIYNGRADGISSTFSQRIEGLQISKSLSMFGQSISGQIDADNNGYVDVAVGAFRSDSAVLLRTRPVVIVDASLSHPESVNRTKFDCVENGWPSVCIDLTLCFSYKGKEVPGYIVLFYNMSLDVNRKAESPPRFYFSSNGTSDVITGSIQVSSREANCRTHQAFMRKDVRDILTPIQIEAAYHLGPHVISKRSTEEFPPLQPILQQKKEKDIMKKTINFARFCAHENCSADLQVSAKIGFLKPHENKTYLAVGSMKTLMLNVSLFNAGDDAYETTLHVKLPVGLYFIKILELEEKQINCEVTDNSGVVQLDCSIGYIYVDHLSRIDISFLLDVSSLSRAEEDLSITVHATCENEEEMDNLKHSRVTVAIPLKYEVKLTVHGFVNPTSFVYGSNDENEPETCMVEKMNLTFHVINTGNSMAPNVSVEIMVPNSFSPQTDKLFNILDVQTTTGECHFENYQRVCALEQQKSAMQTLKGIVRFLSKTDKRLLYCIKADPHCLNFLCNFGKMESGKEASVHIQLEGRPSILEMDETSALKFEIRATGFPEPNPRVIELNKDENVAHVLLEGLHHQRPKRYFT
T1 sequence (P26010 20-723 limits assumed): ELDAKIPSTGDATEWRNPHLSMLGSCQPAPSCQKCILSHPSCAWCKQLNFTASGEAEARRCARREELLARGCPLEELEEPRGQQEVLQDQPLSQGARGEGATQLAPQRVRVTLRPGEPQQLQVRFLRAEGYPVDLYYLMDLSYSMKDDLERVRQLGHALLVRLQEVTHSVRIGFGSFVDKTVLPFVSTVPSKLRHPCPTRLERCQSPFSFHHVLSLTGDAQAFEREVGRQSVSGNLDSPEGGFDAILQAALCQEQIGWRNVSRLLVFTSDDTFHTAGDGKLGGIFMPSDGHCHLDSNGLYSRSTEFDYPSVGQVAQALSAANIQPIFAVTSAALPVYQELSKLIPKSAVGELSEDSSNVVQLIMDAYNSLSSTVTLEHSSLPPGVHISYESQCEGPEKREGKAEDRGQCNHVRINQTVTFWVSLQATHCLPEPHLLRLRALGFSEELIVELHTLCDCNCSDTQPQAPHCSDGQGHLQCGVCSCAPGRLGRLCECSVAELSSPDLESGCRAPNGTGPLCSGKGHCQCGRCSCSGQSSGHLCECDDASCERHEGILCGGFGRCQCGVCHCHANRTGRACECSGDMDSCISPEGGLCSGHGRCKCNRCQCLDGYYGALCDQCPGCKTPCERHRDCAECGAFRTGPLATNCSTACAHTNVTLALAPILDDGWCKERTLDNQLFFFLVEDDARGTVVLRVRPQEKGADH
α4β1, sequence (P13612 34-1032): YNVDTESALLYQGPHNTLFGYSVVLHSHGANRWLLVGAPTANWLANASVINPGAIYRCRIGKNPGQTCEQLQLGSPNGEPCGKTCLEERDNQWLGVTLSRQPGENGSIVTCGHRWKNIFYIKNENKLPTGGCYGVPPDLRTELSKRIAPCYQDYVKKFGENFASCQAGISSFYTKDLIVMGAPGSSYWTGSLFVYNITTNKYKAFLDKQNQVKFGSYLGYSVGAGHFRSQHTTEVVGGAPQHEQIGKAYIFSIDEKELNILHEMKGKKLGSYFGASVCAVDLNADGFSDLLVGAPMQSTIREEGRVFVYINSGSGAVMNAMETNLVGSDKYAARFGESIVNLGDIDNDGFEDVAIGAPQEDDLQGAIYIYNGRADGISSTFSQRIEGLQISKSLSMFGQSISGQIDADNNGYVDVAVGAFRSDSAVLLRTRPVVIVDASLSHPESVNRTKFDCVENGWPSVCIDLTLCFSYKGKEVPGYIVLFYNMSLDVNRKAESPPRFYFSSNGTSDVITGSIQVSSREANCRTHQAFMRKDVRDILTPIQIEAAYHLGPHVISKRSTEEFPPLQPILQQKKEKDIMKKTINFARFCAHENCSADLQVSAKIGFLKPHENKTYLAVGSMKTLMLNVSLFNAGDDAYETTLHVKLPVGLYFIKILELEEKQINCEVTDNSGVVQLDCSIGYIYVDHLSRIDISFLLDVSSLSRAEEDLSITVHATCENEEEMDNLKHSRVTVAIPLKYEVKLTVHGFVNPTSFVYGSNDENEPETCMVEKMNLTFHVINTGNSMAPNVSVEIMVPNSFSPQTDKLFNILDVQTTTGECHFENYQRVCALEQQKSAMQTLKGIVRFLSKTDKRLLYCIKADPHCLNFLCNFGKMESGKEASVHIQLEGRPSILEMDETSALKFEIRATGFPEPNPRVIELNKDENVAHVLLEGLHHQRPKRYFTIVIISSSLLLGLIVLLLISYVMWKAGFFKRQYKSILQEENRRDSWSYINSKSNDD
α4β1, sequence (P05556 21-798): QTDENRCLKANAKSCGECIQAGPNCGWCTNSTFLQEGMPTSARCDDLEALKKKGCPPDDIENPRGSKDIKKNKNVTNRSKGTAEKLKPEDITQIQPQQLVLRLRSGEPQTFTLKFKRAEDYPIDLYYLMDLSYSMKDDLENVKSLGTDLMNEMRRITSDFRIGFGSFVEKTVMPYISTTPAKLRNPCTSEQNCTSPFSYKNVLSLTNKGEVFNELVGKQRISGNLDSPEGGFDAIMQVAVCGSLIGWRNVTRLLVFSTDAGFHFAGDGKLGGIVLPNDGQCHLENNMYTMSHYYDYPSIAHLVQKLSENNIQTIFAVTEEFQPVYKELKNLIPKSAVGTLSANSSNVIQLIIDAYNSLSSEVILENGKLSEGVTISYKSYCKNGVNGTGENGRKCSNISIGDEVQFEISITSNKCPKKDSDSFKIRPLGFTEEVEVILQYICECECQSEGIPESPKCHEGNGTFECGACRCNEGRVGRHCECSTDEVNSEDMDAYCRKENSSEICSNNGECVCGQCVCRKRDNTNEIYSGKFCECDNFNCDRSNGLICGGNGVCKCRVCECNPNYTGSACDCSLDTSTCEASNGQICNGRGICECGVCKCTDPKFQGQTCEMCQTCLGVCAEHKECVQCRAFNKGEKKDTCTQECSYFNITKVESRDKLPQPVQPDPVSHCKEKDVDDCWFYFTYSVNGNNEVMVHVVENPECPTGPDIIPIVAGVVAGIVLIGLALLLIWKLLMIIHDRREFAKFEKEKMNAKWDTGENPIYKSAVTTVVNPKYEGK

| SMILES | pIC50 (α4β1; [1]) | pIC50 (rh integrin α4β7; [2]) | pIC50 (α4β1; [3]) | pIC50 (rh integrin α4β7; [4]) |
| --- | --- | --- | --- | --- |
| CC(=O)N[C@@H]1C(=O)N(C)[C@@H](CCCNC(=N)N)C(=O)N[C@@H](CO)C(=O)N[C@@H](CC(=O)O)C(=O)N[C@@H]([C@@H](C)O)C(=O)N[C@@H](CC(C)C)C(=O)N[C@H](C(=O)N[C@@H](Cc2c[nH]c3ccccc23)C(=O)N[C@H](CCC(=O)O)C(=O)N[C@H](CCCCNC(=O)COCC(=O)NCCCC[C@@H](NC(=O)[C@@H](CCC(=O)O)NC(=O)[C@H](Cc2c[nH]c3ccccc23)NC(=O)[C@H]2NC(=O)[C@H](CC(C)C)NC(=O)[C@H]([C@@H](C)O)NC(=O)[C@H](CC(=O)O)NC(=O)[C@H](CO)NC(=O)[C@H](CCCNC(=N)N)N(C)C(=O)[C@@H](NC(C)=O)C(C)(C)SSC2(C)C)C(=O)O)C(=O)O)C(C)(C)SSC1(C)C [compound 216, (Ac-Pen-N-Me-R-S-D-T-L-Pen-W-e-k-OH)2-DIG] (I: Ac-[Pen][NMeR]SDTL[Pen]W[dE][dK]-OH / II: Ac-[Pen][NMeR]SDTL[Pen]W[dE][dK]-OH; disulfide I:1-I:7, II:1-II:7 (inferred); linker I:10-II:10 via Diglycolyl (inferred)) | < 4.00 | 8.55 |  |  |
| CC(=O)N[C@H]1CSSC[C@@H](C(=O)NCC(=O)N[C@@H](CCC(=O)O)C(=O)N[C@@H](CCCCNC(=O)CCOCCOCCOCCOCCOCCOCCOCCOCCOCCOCCOCCOCCOCCOCCOCCOCCOCCOCCOCCOCCOCCOCCOCCOCCOCCC(=O)NCCCC[C@H](NC(=O)[C@H](CCC(=O)O)NC(=O)CNC(=O)[C@@H]2CSSC[C@H](NC(C)=O)C(=O)N[C@@H](CCCNC(=N)N)C(=O)N[C@@H](CO)C(=O)N[C@@H](CC(=O)O)C(=O)N[C@@H]([C@@H](C)O)C(=O)N[C@@H](CC(C)C)C(=O)N2)C(N)=O)C(N)=O)NC(=O)[C@H](CC(C)C)NC(=O)[C@H]([C@@H](C)O)NC(=O)[C@H](CC(=O)O)NC(=O)[C@H](CO)NC(=O)[C@H](CCCNC(=N)N)NC1=O [compound 197, (Ac-C-R-S-D-T-L-C-G-E-K-NH2)2-PEG25] (I: Ac-CRSDTLCGEK-NH2 / II: Ac-CRSDTLCGEK-NH2; disulfide I:1-I:7, II:1-II:7; linker I:10-II:10 via X2) | < 4.00 | 7.44 |  |  |
| CC(=O)N[C@@H]1C(=O)N(C)[C@@H](CCCNC(=N)N)C(=O)N[C@@H](CO)C(=O)N[C@@H](CC(=O)O)C(=O)N[C@@H]([C@@H](C)O)C(=O)N[C@@H](CC(C)C)C(=O)N[C@H](C(=O)N[C@@H](Cc2c[nH]c3ccccc23)C(=O)N[C@@H](CCC(=O)O)CC(=O)N[C@H](CCCCNC(=O)COCC(=O)NCCCC[C@@H](NC(=O)C[C@H](CCC(=O)O)NC(=O)[C@H](Cc2c[nH]c3ccccc23)NC(=O)[C@H]2NC(=O)[C@H](CC(C)C)NC(=O)[C@H]([C@@H](C)O)NC(=O)[C@H](CC(=O)O)NC(=O)[C@H](CO)NC(=O)[C@H](CCCNC(=N)N)N(C)C(=O)[C@@H](NC(C)=O)C(C)(C)SSC2(C)C)C(N)=O)C(N)=O)C(C)(C)SSC1(C)C [compound 213, [Ac-Pen-(N-Me-Arg)-Ser-Asp-Thr-Leu-Pen-Trp-(β-homoGlu)-(D-Lys)-NH2]2-DIG] (I: Ac-[Pen][NMeR]SDTL[Pen]W[β3hE][dK]-NH2 / II: Ac-[Pen][NMeR]SDTL[Pen]W[β3hE][dK]-NH2; disulfide I:1-I:7, II:1-II:7; linker I:10-II:10 via Diglycolyl) | < 4.00 | 8.33 |  |  |
| CC(=O)N[C@@H]1C(=O)N(C)[C@@H](CCCNC(=N)N)C(=O)N[C@@H](CO)C(=O)N[C@@H](CC(=O)O)C(=O)N[C@@H]([C@@H](C)O)C(=O)N[C@@H](CC(C)C)C(=O)N[C@H](C(=O)N[C@@H](Cc2c[nH]c3ccccc23)C(=O)N[C@@H](CCC(=O)O)C(=O)N[C@H](CCCCNC(=O)COCC(=O)NCCCC[C@@H](NC(=O)[C@H](CCC(=O)O)NC(=O)[C@H](Cc2c[nH]c3ccccc23)NC(=O)[C@H]2NC(=O)[C@H](CC(C)C)NC(=O)[C@H]([C@@H](C)O)NC(=O)[C@H](CC(=O)O)NC(=O)[C@H](CO)NC(=O)[C@H](CCCNC(=N)N)N(C)C(=O)[C@@H](NC(C)=O)C(C)(C)SSC2(C)C)C(N)=O)C(N)=O)C(C)(C)SSC1(C)C [compound 67] (I: Ac-[Pen][NMeR]SDTL[Pen]WE[dK]-NH2 / II: Ac-[Pen][NMeR]SDTL[Pen]WE[dK]-NH2; disulfide I:1-I:7, II:1-II:7; linker I:10-II:10 via Diglycolyl) |  |  | < 4.00 | > 8.00 |
| CC(=O)N[C@@H]1C(=O)N(C)[C@@H](CCCNC(=N)N)C(=O)N[C@@H](CO)C(=O)N[C@@H](CC(=O)O)C(=O)N[C@@H]([C@@H](C)O)C(=O)N[C@@H](CC(C)C)C(=O)N[C@H](C(=O)N[C@@H](Cc2c[nH]c3ccccc23)C(=O)N[C@H](CCC(=O)O)C(=O)N[C@H](CCCCNC(=O)COCC(=O)NCCCC[C@@H](NC(=O)[C@@H](CCC(=O)O)NC(=O)[C@H](Cc2c[nH]c3ccccc23)NC(=O)[C@H]2NC(=O)[C@H](CC(C)C)NC(=O)[C@H]([C@@H](C)O)NC(=O)[C@H](CC(=O)O)NC(=O)[C@H](CO)NC(=O)[C@H](CCCNC(=N)N)N(C)C(=O)[C@@H](NC(C)=O)C(C)(C)SSC2(C)C)C(N)=O)C(N)=O)C(C)(C)SSC1(C)C [compound 68] (I: Ac-[Pen][NMeR]SDTL[Pen]W[dE][dK]-NH2 / II: Ac-[Pen][NMeR]SDTL[Pen]W[dE][dK]-NH2; disulfide I:1-I:7, II:1-II:7; linker I:10-II:10 via Diglycolyl) |  |  | < 4.00 | > 8.00 |
| CC(=O)N[C@@H]1C(=O)N(C)[C@@H](CCCNC(=N)N)C(=O)N[C@@H](CO)C(=O)N[C@@H](CC(=O)O)C(=O)N[C@@H]([C@@H](C)O)C(=O)N[C@@H](CC(C)C)C(=O)N[C@H](C(=O)N[C@@H](Cc2c[nH]c3ccccc23)C(=O)N[C@@H](CCC(=O)O)C(=O)N[C@H](CCCCNC(=O)COCC(=O)NCCCC[C@@H](NC(=O)[C@H](CCC(=O)O)NC(=O)[C@H](Cc2c[nH]c3ccccc23)NC(=O)[C@H]2NC(=O)[C@H](CC(C)C)NC(=O)[C@H]([C@@H](C)O)NC(=O)[C@H](CC(=O)O)NC(=O)[C@H](CO)NC(=O)[C@H](CCCNC(=N)N)N(C)C(=O)[C@@H](NC(C)=O)C(C)(C)SSC2(C)C)C(=O)O)C(=O)O)C(C)(C)SSC1(C)C [compound 78] (I: Ac-[Pen][NMeR]SDTL[Pen]WE[dK]-OH / II: Ac-[Pen][NMeR]SDTL[Pen]WE[dK]-OH; disulfide I:1-I:7, II:1-II:7; linker I:10-II:10 via Diglycolyl) |  |  | < 4.00 | > 8.00 |
| CC(=O)N[C@H]1CSSC[C@@H](C(=O)NCC(=O)N[C@@H](CCC(=O)O)C(=O)N[C@@H](CCCCN)C(N)=O)NC(=O)[C@H](CC(C)C)NC(=O)[C@H]([C@@H](C)O)NC(=O)[C@H](CC(=O)O)NC(=O)[C@H](CO)NC(=O)[C@H](CCCNC(=N)N)NC1=O [compound 196, Ac-C-R-S-D-T-L-C-G-E-K-NH2] (Ac-CRSDTLCGEK-NH2; disulfide 1-7) | < 4.00 | 7.06 |  |  |
| CC(=O)N[C@@H]1C(=O)N(C)[C@@H](CCCNC(=N)N)C(=O)N[C@@H](CO)C(=O)N[C@@H](CC(=O)O)C(=O)N[C@@H]([C@@H](C)O)C(=O)N[C@@H](CC(C)C)C(=O)N[C@H](C(=O)N[C@@H](Cc2ccc(C(C)(C)C)cc2)C(=O)N[C@@H](CCC(=O)O)CC(=O)N[C@H](CCCCNC(=O)COCC(=O)NCCCC[C@@H](NC(=O)C[C@H](CCC(=O)O)NC(=O)[C@H](Cc2ccc(C(C)(C)C)cc2)NC(=O)[C@H]2NC(=O)[C@H](CC(C)C)NC(=O)[C@H]([C@@H](C)O)NC(=O)[C@H](CC(=O)O)NC(=O)[C@H](CO)NC(=O)[C@H](CCCNC(=N)N)N(C)C(=O)[C@@H](NC(C)=O)C(C)(C)SSC2(C)C)C(N)=O)C(N)=O)C(C)(C)SSC1(C)C [compound 132] (I: Ac-[Pen][NMeR]SDTL[Pen][Phe(4-tBu)][β3hE][dK]-NH2 / II: Ac-[Pen][NMeR]SDTL[Pen][Phe(4-tBu)][β3hE][dK]-NH2; disulfide I:1-I:7, II:1-II:7; linker I:10-II:10 via Diglycolyl) |  |  | < 4.00 | > 8.00 |
